US11344578B2, “Immune cells expressing engineered antigen receptors” (Board of Regents, The University of Texas System, priority 2017, dated 2022)
“Also recorded” adds a separate entry of the source.

How the values were obtained:
iC9/CS1/IL15+NK cells = test: Inducible caspase-9 suicide gene test, annexin-V-7AAD staining; assay type: cell-based; details: 10 nM CID AP20187 added to cultures
Description: Because of concerns over autonomous, uncontrolled NK-cell growth due to autocrine production of IL-15, a suicide gene based on the inducible caspase-9 (IC9) gene was incorporated into the construct. To test the inducible caspase-9 suicide gene that was incorporated into the retroviral vector, 10 nM of CID AP20187 was added to cultures of iC9/CS1/IL15+NK cells. The AP20187 induced apoptosis/necrosis of transgenic cells within 4 hours as assessed by annexin-V-7AAD staining.

TGFβ-RII = test: CRISPR/CAS9 knockout of TGFβ-RII in CAR NK cells; assay type: cell-based; details: Cas9 plus gRNA targeting Exon 3; FIG. 6A
Description: Next, CRISPR-CAS9 was used to knockout TGFβ in CAR NK cells to render CAR NK cells resistant to the immunosuppressive effect of exogenous TGFβ. […] Wild type and TGF-β-RII knockout NK cells were treated with 10 ng/ml of recombinant TGF-β for 48 hrs and their response to K562 targets was assessed. […] TGFβ-RII knockout by CRISPR/CAS9 technology was also found to abrogate downstream Smad-2/3 phosphorylation in response to 10n g/ml of recombinant TGF-β compared to NK cells treated with CAS9 alone (FIG. 6C). Thus, CRISPR-CAS9-mediated knockout of TGFβ-RII renders NK cells resistant to TGFβ.

glucocorticoid receptor = test: PCR based screening of glucocorticoid receptor knockout in hematopoietic cells; assay type: cell-based; details: T cells and NK cells; CRISPR-CAS9; FIG. 3
Source text: To produce steroid-resistant immune cells, the CRISPR-CAS9 system was used to knockout glucocorticoid receptor in hematopoietic cells using gRNA SEQ ID NOs:1-2.

Raji leukemic B cells = test: Luciferase-expressing Raji NSG mouse model, in vivo bioluminescence imaging and survival; details: effect of IL-15 in the construct
Source text: To determine the anti-leukemic effect of the CAR-transduced NK cells, they were infused into a “humanized” mouse model of lymphoblastic leukemia, the luciferase-expressing Raji NSG mouse model. To monitor the trafficking of CAR-CD191+CB-NK cells to tumor sites in vivo, the cells were labeled with the FFLuc vector, enabling monitoring by bioluminescence imaging. Engrafted mice received […] Raji leukemic B cells (2×10^6) injected intravenously and labeled with the RLuc vector to monitor tumor growth. Six to 10 days after tumor engraftment, mice were infused intravenously with 2×10^7 expanded CB-NK cells that were unmodified or CD19-CD28-zeta-2A-IL15 CB-NK cells labeled with FFLuc. All imaging was performed once a week for 3 weeks. Four groups of animals (n=10 per group) were studied, and the spleens, blood and lymph nodes of the mice were collected after they were euthanized.

## CC[C@H](C(=O)N1CCCC[C@H]1C(=O)O[C@H](CCc1ccc(OC)c(OC)c1)c1cccc(OCC(=O)NCC(CNC(=O)COc2cccc([C@@H](CCc3ccc(OC)c(OC)c3)OC(=O)[C@@H]3CCCCN3C(=O)[C@@H](CC)c3cc(OC)c(OC)c(OC)c3)c2)CN(C)C)c1)c1cc(OC)c(OC)c(OC)c1 [AP20187]
iC9/CS1/IL15+NK cells
  time to apoptosis/necrosis of transgenic cells: ≤ 4 h

## gRNA SEQ ID NOs:3-4: guide RNAs EX3 TGFBR2 sG1 and sG2 used with Cas9 to knock out TGFβ-RII (guide 1 CGGCTGAGGAGCGGAAGA; guide 2 TGGAGGTGAGCAATCCCC; used with Cas9, further chemistry not given here)
TGFβ-RII
  knockout of TGFβ-RII: Successful knockout

## gRNA SEQ ID NOs:1-2: guide RNAs Ex3 NR3C1 sG1 and sG2 used with CAS9 to knock out glucocorticoid receptor (guide 1 TGCTGTTGAGGAGCTGGA; guide 2 AGCACACCAGGCAGAGTT; used with Cas9, further chemistry not given here)
Glucocorticoid receptor
  glucocorticoid receptor knockout by PCR based screening: efficient knockdown

## IL-15: interleukin-15 co-expressed from the CAR construct in NK cells
Raji leukemic B cells; FIG. 2A
  NK-CAR mediated killing of tumor: enhances; also recorded: increase
Raji leukemic B cells; FIG. 2B
  survival: prolong survival
